Among the test systems are BT-549; HL-60; HOP-62; HOP-92; Hs-578T; IGROV-1; M14; MDA-MB-231; NCI-H226; NCI-H460; OVCAR-3; OVCAR-5; SF-295; SK-MEL-2; SR; UACC-257; UACC-62; UO-31; RPMI-8226; SF-539.
Holding throughout (test): growth of human tumour cells (NCI), 48 h

Structures are written as SMILES.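 Dose response: 5 concentrations. Exposure: 48 h. Format: 96-well plates. Endpoint: linear interpolation; highest concentration if not reached. GI50: concentration for 50% inhibition of growth.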 Activity calls are given as the source filed them. No stated cut-off is given here; in the data, active = GI50 up to about 1.1 µM and inactive = higher.

With `COC(=O)[C@H](Cc1c[nH]c2ccccc12)NC(=O)c1ccccc1I`, the GI50 with BT-549 was > 100 µM (inactive); with HL-60, 24.9 µM (inactive); in the assay on HOP-62 it was 30.5 µM (inactive); with HOP-92 it was 16.9 µM (inactive); in the assay on Hs-578T, 9.84 µM (inactive); with IGROV-1, 31.8 µM (inactive). Moreover, the GI50 in the assay on M14 was 15.7 µM (inactive); with MDA-MB-231, 29.1 µM (inactive); in the assay with NCI-H226, 26.8 µM (inactive); in the assay with NCI-H460, 24.8 µM (inactive); in the assay on OVCAR-3, 13.6 µM (inactive); with OVCAR-5, > 100 µM (inactive). In addition, the GI50 is 42.4 µM (inactive) with SF-295; 19.9 µM (inactive) with SK-MEL-2; 24.2 µM (inactive) with SR; 18.8 µM (inactive) in the assay on UACC-257; 18.2 µM (inactive) with UACC-62; 19.3 µM (inactive) with UO-31.

In the case of `Cn1c(=O)c2c(no[n+]2[O-])c2ccccc21`, the GI50 is 15 µM (inactive) in the assay on BT-549; 17.3 µM (inactive) in the assay with HOP-62; 20.2 µM (inactive) in the assay on HOP-92; 23.3 µM (inactive) in the assay with Hs-578T; 7.24 µM (inactive) in the assay with IGROV-1; 12.4 µM (inactive) in the assay with M14. Also, the GI50 was 19.7 µM (inactive) in the assay on MDA-MB-231; 16.9 µM (inactive) in the assay on NCI-H226; 17.8 µM (inactive) in the assay on NCI-H460; 22.1 µM (inactive) in the assay with OVCAR-3; > 10 µM (inactive) in the assay on OVCAR-5; 22.2 µM (inactive) in the assay on RPMI-8226. Moreover, the GI50 is 21.6 µM (inactive) in the assay on SF-295; 25.8 µM (inactive) with SF-539; 12.4 µM (inactive) in the assay on SK-MEL-2; 5 µM (inactive) in the assay on SR; 15.3 µM (inactive) with UACC-257; 16.7 µM (inactive) in the assay on UACC-62. Besides, in the assay on UO-31, the GI50 is 24.3 µM (inactive).

`CCCCn1c2c(n(CCCC)c1=S)-c1c(n(CCCC)c(=S)n1CCCC)SSSS2`: the GI50 in the assay on BT-549 is 0.973 µM (active); in the assay with HOP-62 it was 6.28 µM (inactive); with HOP-92, 0.301 µM (active); in the assay with Hs-578T, 3.82 µM (inactive); with IGROV-1 it was 0.7 µM (active); in the assay on M14 it was 3.92 µM (inactive). The GI50 was 0.656 µM (active) in the assay with MDA-MB-231; 16.6 µM (inactive) in the assay with NCI-H226; 30.8 µM (inactive) with NCI-H460; 0.267 µM (active) with OVCAR-3; 0.362 µM (active) in the assay on OVCAR-5; 0.399 µM (active) in the assay with RPMI-8226. Further, the GI50 with SF-295 was 13.3 µM (inactive); in the assay with SF-539, 0.783 µM (active); in the assay with SK-MEL-2 it was 2.09 µM (inactive); in the assay with SR it was 0.397 µM (active); in the assay with UACC-257 it was 2.29 µM (inactive); in the assay with UACC-62, 1.47 µM (inactive). Also, the GI50 in the assay with UO-31 was 0.881 µM (active).

As for `COc1ccc(N2/C(=N/c3ccccc3)SC(=N/S(=O)(=O)c3ccccc3)/C2=N\S(=O)(=O)c2ccccc2)cc1`, the GI50 with BT-549 was 24.3 µM (inactive); in the assay with HL-60, 12.1 µM (inactive); in the assay on HOP-62, 26.7 µM (inactive); with HOP-92 it was 16.4 µM (inactive); in the assay on Hs-578T, 18.6 µM (inactive); in the assay with IGROV-1 it was 13 µM (inactive). Further, the GI50 is 33.7 µM (inactive) in the assay with M14; 14.3 µM (inactive) in the assay on MDA-MB-231; 21.8 µM (inactive) in the assay on NCI-H226; 11.3 µM (inactive) in the assay on NCI-H460; 22.6 µM (inactive) with OVCAR-5; 20.7 µM (inactive) with RPMI-8226. Further, the GI50 was 16.8 µM (inactive) with SR, 26.8 µM (inactive) in the assay on UACC-257, 6.82 µM (inactive) in the assay with UACC-62 and 19.2 µM (inactive) with UO-31.

As to `O=C(/N=C1/NCC(CN2CCN(c3ccccc3)CC2)O1)Nc1ccccc1` (centres undefined), the GI50 with BT-549, with HL-60, in the assay with HOP-62, in the assay with HOP-92, in the assay with Hs-578T and in the assay on IGROV-1 was > 100 µM (inactive) each time. Moreover, the GI50 in the assay on M14, in the assay on MDA-MB-231, in the assay with NCI-H226, in the assay on NCI-H460, with OVCAR-5 and in the assay with RPMI-8226 was > 100 µM (inactive) in each case. Besides, the GI50 in the assay with SF-295, in the assay on SK-MEL-2, in the assay with SR, in the assay with UACC-257, with UACC-62 and in the assay with UO-31 was > 100 µM (inactive) throughout.

Turning to `COC(=O)Cc1c(C(=O)CC(C)(C)n2cnc(CCN3C(=O)CCC3=O)c2)[nH]c2ccccc12`, the GI50 in the assay with BT-549 is > 100 µM (inactive); with HOP-92, 15 µM (inactive); with Hs-578T, > 100 µM (inactive); in the assay on IGROV-1 it was 89.3 µM (inactive); in the assay with M14, > 100 µM (inactive); with MDA-MB-231 it was > 100 µM (inactive). Also, the GI50 with NCI-H226, with NCI-H460, with OVCAR-3, in the assay on OVCAR-5, in the assay with SF-295 and in the assay on SF-539 was > 100 µM (inactive) in each case. Moreover, the GI50 in the assay on SK-MEL-2 is > 100 µM (inactive); in the assay with SR it was 34.5 µM (inactive); with UACC-257 it was > 100 µM (inactive); with UACC-62, > 100 µM (inactive); in the assay with UO-31, 37.5 µM (inactive).

As for `CNc1ncnc2c1cnn2Cc1cn(CCCCO)nn1`, the GI50 with BT-549, in the assay with HOP-62, in the assay with HOP-92, in the assay with Hs-578T, in the assay with IGROV-1 and in the assay on M14 was > 100 µM (inactive) each time. In addition, the GI50 in the assay on MDA-MB-231, in the assay on NCI-H226, in the assay on NCI-H460, in the assay with OVCAR-3, in the assay on OVCAR-5 and in the assay on RPMI-8226 was > 100 µM (inactive) in each case. Besides, the GI50 with SF-295, in the assay on SF-539, in the assay with SK-MEL-2, with SR, in the assay with UACC-257 and in the assay with UACC-62 was > 100 µM (inactive) each time. In the assay with UO-31, the GI50 is > 100 µM (inactive).

As for `CCOc1ccc2c(c1)c(=O)c1c(NCCN(CC)CC)ccc3nnn2c31`, the GI50 with BT-549 is > 71.3 µM (inactive); in the assay on HOP-62 it was > 31.4 µM (inactive); with HOP-92 it was 29.2 µM (inactive); with Hs-578T, 57 µM (inactive); in the assay on IGROV-1, 9.64 µM (inactive); in the assay with M14, 35.2 µM (inactive). Moreover, the GI50 in the assay with MDA-MB-231 is 18.6 µM (inactive); in the assay on NCI-H226, 11.9 µM (inactive); in the assay with NCI-H460 it was 10.9 µM (inactive); with OVCAR-3, > 100 µM (inactive); with OVCAR-5, > 36.1 µM (inactive); in the assay on RPMI-8226, 15.1 µM (inactive). In addition, the GI50 in the assay with SF-295 was > 35.6 µM (inactive); in the assay on SF-539, 9.08 µM (inactive); in the assay on SK-MEL-2 it was > 100 µM (inactive); in the assay with SR it was 10.4 µM (inactive); in the assay on UACC-257, > 41.6 µM (inactive); with UACC-62, > 100 µM (inactive). For the same molecule, in the assay on UO-31, the GI50 is 3.4 µM (inactive).

As to `c1ccc2sc(SSSc3nc4ccccc4s3)nc2c1`, the GI50 with BT-549 is > 100 µM (inactive); in the assay on HL-60, 49.2 µM (inactive); with HOP-62, > 100 µM (inactive); in the assay on HOP-92, > 100 µM (inactive); with Hs-578T, > 100 µM (inactive); with IGROV-1, > 100 µM (inactive). Further, the GI50 is > 100 µM (inactive) with M14; > 100 µM (inactive) in the assay on MDA-MB-231; > 100 µM (inactive) with NCI-H226; 44.7 µM (inactive) with NCI-H460; > 100 µM (inactive) in the assay with OVCAR-5; > 100 µM (inactive) in the assay on RPMI-8226. For the same molecule, the GI50 in the assay on SF-295 is > 100 µM (inactive); in the assay with SK-MEL-2 it was > 100 µM (inactive); in the assay on SR, 53.8 µM (inactive); with UACC-257, 49.8 µM (inactive); with UACC-62 it was > 100 µM (inactive); with UO-31, > 100 µM (inactive).

For the molecule `COc1ccc(/C=N/n2c(=O)[nH]c3ccccc3c2=O)cc1`, the GI50 in the assay on BT-549 was > 100 µM (inactive); in the assay with HOP-62, > 100 µM (inactive); in the assay on HOP-92 it was > 100 µM (inactive); with Hs-578T, 36.4 µM (inactive); in the assay with IGROV-1, > 100 µM (inactive); in the assay on M14, > 100 µM (inactive). In addition, the GI50 in the assay with MDA-MB-231, with NCI-H226, in the assay on NCI-H460, in the assay with OVCAR-3, with OVCAR-5 and in the assay on RPMI-8226 was > 100 µM (inactive) in each case. Moreover, the GI50 with SF-295, in the assay on SF-539, in the assay with SK-MEL-2, with SR, with UACC-257 and in the assay on UACC-62 was > 100 µM (inactive) each time. Besides, in the assay on UO-31, the GI50 is > 100 µM (inactive).

As for `O=C(NC(Cc1c[nH]cn1)C(=O)N1CCCC1)C1CCCC1` (centres undefined), the GI50 with BT-549 was > 100 µM (inactive); with HL-60, > 100 µM (inactive); in the assay on HOP-62, > 100 µM (inactive); in the assay with HOP-92, > 100 µM (inactive); with Hs-578T, 83.8 µM (inactive); in the assay with IGROV-1 it was > 100 µM (inactive). Further, the GI50 with M14, in the assay with MDA-MB-231, with NCI-H226, in the assay on NCI-H460, with OVCAR-3 and in the assay with OVCAR-5 was > 100 µM (inactive) in each case. Also, the GI50 with RPMI-8226 was > 100 µM (inactive); in the assay on SF-295, > 100 µM (inactive); in the assay on SR, 54.1 µM (inactive); in the assay with UACC-62 it was > 100 µM (inactive); in the assay with UO-31, > 100 µM (inactive).

The values above are taken from ChEMBL document CHEMBL1201862, “PubChem BioAssay data set” (2004).
